Publication PMC9964319, “Half-Sandwich Rhodium Complexes with Releasable N-Donor Monodentate Ligands: Solution Chemical Properties and the Possibility for Acidosis Activation” (Pharmaceutics, 2023)
Where two headings read alike, the source gives them in different places. Blank lines part the entries; values can stand above or below the molecule they belong to.

How the values were obtained:
[1] = Computed fractions of mixed-ligand complexes as function of pH from formation constants; type: physicochemical; conditions: for difference in computed fraction (dissociated) when pH decreases from 7.4 to 6.0: 100 μM, ratio 1:1; for fraction of the active form (computed): pH 6.0
Procedure: With the help of these formation constants, the extent of complex formation can be estimated for a chosen monodentate ligand—complex chemical system under the desired conditions (concentration and pH). Figure 6 and Figure S25 show the computed fractions of the formed, mixed-ligand complexes between pH = 5 and 8 and at a 100 μM concentration (metal complex-to-monodentate ligand ratio = 1:1). The fraction at pH = 7.4 and at pH 6.0–6.7 were compared to each other.
As an example, the fractions of [Ru(p-cym)(8HQH−1)(mim)]^+ are shown in Figure S26 with decreasing concentration.
Formation constants shown in Figure 5 and in Table S2 were used for the calculation. Percentages indicate the fraction at pH = 7.4 (blue line) and in the range between pH = 6.0–6.7 (pink rectangle: possible pH of tumor microenvironment during acidosis).

[2] = Formation constants of mixed-ligand half-sandwich complexes (UV-vis and 1H NMR); type: physicochemical; conditions: aqua complex + monodentate ligand; I = 0.10 M (KCl); t = 25.0 °C; UV-vis and 1H NMR
Procedure: NMR spectroscopic studies were carried out on a Bruker Avance III HD Ascend 500 Plus instrument. For the aqueous samples, ^1H NMR spectra were recorded with the WATERGATE water suppression pulse scheme using DSS internal standard. The highest peak of DSS was 0.00 ppm. The measurement was very similar to the UV-vis measurement since the complex–to–monodentate ligand ratio was also between 0–10 equivalents; the spectra were recorded after the given waiting time. […] This technique was useful in those cases where no spectral change was visible during the UV-vis titrations.
In both measurement methods, the formation constant (K) was obtained using the computer program PSEQUAD [38].
It is worthwhile to mention that the liberation of the bidentate ligand was not detected even at higher monodentate ligand excess (~10), which means that the disruption of the bond between the bidentate ligand and the metal center is not feasible under these conditions. The calculated formation constants are compared in Figure 5 and are collected in Table S2. The formation of the mixed-ligand complexes was not detected in three cases under the applied conditions, namely [Ru(p-cym)(en)(mim)]^2+, [Ru(p-cym)(phen)(mim)]^2+, and [Ru(p-cym)(en)(Py)]^2+. For these complexes, only a higher limit of the formation constant could be given, assuming that a maximum of 5% of the complex would form (limit of detection) under the conditions used for ^1H NMR spectroscopy. Based on Figure 5, the following trends are observed in the formation constants: (i) [RhCp*(en)(H2O)]^2+ and [RhCp*(phen)(H2O)]^2+ have a stronger monodentate ligand-binding ability than the Ru(p-cym) analogs; (ii) the formation constants of the [Ru(p-cym)(8HQH-1)(N)]^+ complexes are similar or somewhat higher than those of the RhCp* analogs; (iii) a stability trend for the monodentate ligand: mim > bim > Py (iv) and the bidentate ligand: 8HQH-1 > phen ≥ en can be seen.

[3] = test system: E. coli ATCC 25922 (sensitive); test: Antibacterial assay, MIC in 96-well plates at different pH; type: cell-based; conditions: E. coli sensitive, after one day, read-out: MIC
Source text: (§1) The antibacterial effect was studied in two Gram-positive and in two Gram-negative strains. The Gram-positive S. aureus ATCC 25923 (ATCC, Manassas, VA, USA) is a methicillin-susceptible reference bacterial strain, while S. aureus 272123 is a clinical isolate and resistant to methicillin and ofloxacin (MRSA), which was given by Prof. Dr. Leonard Amaral (Institute of Hygiene and Tropical Medicine, Lisbon, Portugal). The Gram-negative strains were E. coli ATCC 25922 (ATCC, Manassas, VA, USA), which is sensitive to antibiotics, and E. coli 32313 (provided by the Institute of Clinical Microbiology, University of Szeged, Hungary), which is resistant to different antibiotics (trimethoprim/sulfamethoxazole, gentamicin, ciprofloxacin, and norfloxacin).
(§2) The minimum inhibitory concentrations (MICs) of the compounds were determined in 96-well plates based on the Clinical and Laboratory Standard Institute guidelines. The compounds were diluted in 100 μL of Mueller Hinton broth. Then, an overnight bacterial culture diluted 10,000 times in 100 μL of medium was added to each well, with the exception of the medium control wells. For each strain and each tested compound, four pH values were set (5, 6, 7, and 8). Each sample was triplicated.

S. aureus 272123 (MRSA) = test: as above; type: cell-based; conditions: read-out: MIC
Source text: as §1, §2

[4] = test system: S. aureus ATCC 25923 (methicillin-susceptible); test: as above; type: cell-based; conditions: S. aureus sensitive, after one day, read-out: MIC
Source text: as §1, §2

[5] = test system: E. coli 32313 (resistant); test: as above; type: cell-based; conditions: E. coli resistant, after one day, read-out: MIC
Source text: as §1, §2

[6] = Fractions of mixed-ligand complexes at 1:1 ratio at pH 6.0 and 7.4 by 1H NMR (screening of monodentate ligands); type: physicochemical; conditions: 1H NMR
Procedure: In the preliminary studies, the co-ordination ability of the monodentate ligands to the [RhCp*(en)(H2O)]^2+, [RhCp*(phen)(H2O)]^2+, and [RhCp*(8HQH-1)(H2O)]^+ complexes was tested (Chart 2). The samples contained the aqua complex and the monodentate ligand in a 1:1 ratio and were buffered at pH = 6.0 and pH = 7.4. For an ideal drug candidate, all of the monodentate ligand would be bound at pH 7.4; thus, the mixed-ligand complex would be present exclusively, which dissociates completely at pH 6.0.
Figure 1 Fractions of the formed mixed-ligand [RhCp*(N,N/O)(N)]^2+/+ complexes at c(complex):c(monodentate ligand) = 1:1 ratio measured at pH = 6.0 (full bars) and 7.4 (checkered bars). Fractions were determined by the integration of the peaks in the ^1H NMR spectra. The percentage values above the columns show the difference in the fractions of the mixed-ligand complex at the two pH values. {c([RhCp*(phen)(H2O)]^2+) = c([RhCp*(en)(H2O)]^2+) = 1 mM; c([RhCp*(8HQH−1)(H2O)]^+) = 500 μM; 10% D2O; pH = 6.0 or 7.4 (PBS’); t = 25.0 °C}. […] The percentages were assigned to (N,N) = en, (N,N) = phen and (N,O) = 8HQH-1 by bar colour only.

[7] = Proton dissociation constants of the coordinated water in [M(arene)(N,N/O)(H2O)]2+/+ complexes (UV-vis titration); conditions: I = 0.10 M (KCl); t = 25.0 °C; UV-vis
Source text: The proton dissociation of the aqua ligand in the [M(arene)(N,N/O)(H2O)]^2+/+ complexes (Scheme 2) results in the inert mixed-hydroxido species (general formula: [M(arene)(N,N/O)(OH)]^+/0).

physchem = conditions: water with 0.10 M KCl
Procedure: pH-potentiometric measurements were performed to determine the protonation constants (Kp) of the ligands and the concentration of the stock solutions. These measurements were carried out at 25.0 ± 0.1 °C in water in a pH range between 2.0 and 11.5, titrating with carbonate-free KOH solution (0.10 M). […] A Thermo Scientific 0710A0 benchtop pH meter (Waltham, MA, USA), equipped with a Metrohm combined electrode (type 6.0234.100) and a Metrohm 665 Dosimat burette (Metrohm, Herisau, Switzerland) was used for these measurements. […] The initial volume of the samples was 10.0 mL, and the ligand concentration was 2.0 mM in the samples. Samples were degassed by bubbling purified argon prior to and during the measurements. The computer program Hyperquad2013 [28] was utilized to determine the protonation constants of the ligands and concentration.
The protonation constants (Kp) were determined by pH-potentiometric and UV-vis spectrophotometric titrations in the presence of 0.1 M KCl (see Table 1 and Figures S21 and S22 for examples).

[8] = pH 6, listed as [RhCp*(8HQH-1)Cl] +mim
[9] = pH 7, listed as [RhCp*(8HQH-1)Cl] +mim
[10] = pH 6, listed as [RhCp*(phen)Cl]Cl +mim
[11] = pH 7, listed as [RhCp*(phen)Cl]Cl +mim

SMILES: Cc1c(C)c(C)[c-](C)c1C.Cn1ccnc1.[O-]c1cccc2cccnc12.[Rh+3] [[RhCp*(8HQH−1)(mim)]^+]
difference in computed fraction (dissociated) when pH decreases from 7.4 to 6.0 [1]: 13%
Formation constant logK of mixed-ligand complex [2]: 4.7 ± 0.2
MIC ([3]; pH 5): > 100 µM
MIC [3, 8]: >100 µM
MIC [3, 9]: >100 µM
MIC ([3]; pH 8): > 100 µM
MIC (S. aureus 272123 (MRSA); pH 5, after one day): 50 µM
MIC (S. aureus 272123 (MRSA); pH 6, after one day): 25 µM
MIC (S. aureus 272123 (MRSA); pH 7, after one day): 12.5 µM
MIC (S. aureus 272123 (MRSA); pH 8, after one day): 12.5 µM
MIC ([4]; pH 7): 12.5 µM
MIC ([4]; pH 8): 12.5 µM
MIC ([5]; pH 5): > 100 µM
MIC [5, 8]: >100 µM
MIC [5, 9]: >100 µM
MIC ([5]; pH 8): > 100 µM

SMILES: Cc1c(C)c(C)[c-](C)c1C.Cn1ccnc1.NCCN.[Rh+3] [[RhCp*(en)(mim)]^2+]
Fraction of mixed-ligand complex ([6]; pH 6.0, PBS'): 52%
Fraction of mixed-ligand complex ([6]; pH 7.4, PBS'): 82%
Formation constant logK of mixed-ligand complex [2]: 4.2 ± 0.1

SMILES: Cc1c(C)c(C)[c-](C)c1C.Cn1ccnc1.[Rh+3].c1cnc2c(c1)ccc1cccnc12 [[RhCp*(phen)(mim)]^2+]
difference in computed fraction (dissociated) when pH decreases from 7.4 to 6.0 [1]: 25%
Formation constant logK of mixed-ligand complex [2]: 5.5 ± 0.1
MIC ([3]; pH 5): > 100 µM
MIC [3, 10]: >100 µM
MIC [3, 11]: >100 µM
MIC ([3]; pH 8): > 100 µM
MIC (S. aureus 272123 (MRSA); pH 5, after one day): > 100 µM
MIC (S. aureus 272123 (MRSA); pH 6, after one day, listed as [RhCp*(phen)Cl]Cl +mim): >100 µM
MIC (S. aureus 272123 (MRSA); pH 7, after one day, listed as [RhCp*(phen)Cl]Cl +mim): >100 µM
MIC (S. aureus 272123 (MRSA); pH 8, after one day): > 100 µM
MIC [4, 11]: >100 µM
MIC ([4]; pH 8): > 100 µM
MIC ([5]; pH 5): > 100 µM
MIC [5, 10]: >100 µM
MIC [5, 11]: >100 µM
MIC ([5]; pH 8): > 100 µM

SMILES: Cc1ccc(C(C)C)cc1.O.[O-]c1cccc2cccnc12.[Ru+2] [[Ru(p-cym)(8HQH-1)(H2O)]+]
pKa of the coordinated water molecule [7]: 9.31±0.01

SMILES: Cc1ccc(C(C)C)cc1.Cn1ccnc1.[O-]c1cccc2cccnc12.[Ru+2] [[Ru(p-cym)(8HQH−1)(mim)]^+]
difference in computed fraction (dissociated) when pH decreases from 7.4 to 6.0 [1]: 10%
fraction of the active form (computed) ([1]; concentration 1 mM): 5%
fraction of the active form (computed) ([1]; concentration two orders of magnitude below 1 mM): 41%

SMILES: Cc1ccc(C(C)C)cc1.NCCN.O.[Ru+2] [[Ru(p-cym)(en)(H2O)]2+]
pKa of the coordinated water molecule [7]: 9.03±0.01

SMILES: Cc1ccc(C(C)C)cc1.O.[Ru+2].c1cnc2c(c1)ccc1cccnc12 [[Ru(p-cym)(phen)(H2O)]2+]
pKa of the coordinated water molecule [7]: 8.91±0.01

pKa (physchem): 9.42 ± 0.01
SMILES: NCc1ccccc1 [benzylamine]
